Paper PMC3998376 (Journal of chromatography. A, 2014)

Legend:
[1] = test system: Pgp, MRP1 and BCRP; experiment: Frontal affinity chromatography on NMAC; assay type: binding, human; conditions: human, pH 7.4
[2] = test system: Pgp, MRP1 and BCRP co-immobilized; experiment: in vitro; conditions: human, pH 7.4, Binding affinity (Kd), NMAC(LN-229)-IAM column, all transporters, ammonium acetate 10 mM pH 7.4, 0.4 mL/min
[3] = test system: Pgp, MRP1 and BCRP; experiment: Frontal affinity chromatography on CMAC; assay type: binding, human; conditions: human, pH 7.4
[4] = target: MRP1 (Homo sapiens, UniProt P33527); experiment: Selective Kd determination on NMAC; assay type: binding
[5] = target: T1, BCRP (Homo sapiens, UniProt Q9UNQ0); experiment: Selective Kd determination on NMAC; assay type: binding
T1 sequence (Q9UNQ0 1-655): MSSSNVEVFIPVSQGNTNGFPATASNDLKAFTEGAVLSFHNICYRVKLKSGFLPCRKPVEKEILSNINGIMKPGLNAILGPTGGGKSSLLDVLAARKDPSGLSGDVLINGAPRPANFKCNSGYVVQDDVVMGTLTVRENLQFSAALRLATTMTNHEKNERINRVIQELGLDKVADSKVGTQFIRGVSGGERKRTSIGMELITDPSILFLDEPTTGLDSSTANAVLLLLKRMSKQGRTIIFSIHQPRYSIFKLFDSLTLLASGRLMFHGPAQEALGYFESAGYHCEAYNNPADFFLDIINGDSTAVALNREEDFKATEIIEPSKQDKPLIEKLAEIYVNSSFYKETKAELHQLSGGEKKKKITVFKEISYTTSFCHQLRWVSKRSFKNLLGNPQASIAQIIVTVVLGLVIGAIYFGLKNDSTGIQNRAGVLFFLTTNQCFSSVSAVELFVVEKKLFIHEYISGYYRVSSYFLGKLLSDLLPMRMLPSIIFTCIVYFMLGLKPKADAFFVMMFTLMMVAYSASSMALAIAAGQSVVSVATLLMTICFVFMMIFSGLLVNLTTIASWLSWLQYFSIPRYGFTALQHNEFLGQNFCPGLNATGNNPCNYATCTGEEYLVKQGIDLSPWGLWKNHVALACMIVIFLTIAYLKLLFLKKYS

[6] = target: T2, nuclear BCRP (Homo sapiens, UniProt Q9UNQ0); experiment: Screening of BCRP ligands, single frontal displacement of etoposide on NMAC; conditions: NMAC(LN229) column, verapamil in mobile phase, etoposide as marker ligand
T2 sequence (Q9UNQ0 1-655): T1 sequence (Q9UNQ0 1-655)

[7] = test system: Pgp, MRP1 and BCRP transporters (LN-229 nuclear membranes, open tubular); experiment: Frontal affinity chromatography on NMAC; assay type: binding, human; conditions: read-out: Binding affinity (Kd); NMAC(LN-229)-OT column, ammonium acetate 10 mM pH 7.4, 0.05 mL/min
[8] = test system: Pgp, MRP1 and BCRP transporters (LN-229 cellular membranes, open tubular); experiment: Frontal affinity chromatography on CMAC; assay type: binding, human; conditions: read-out: Binding affinity (Kd); CMAC(LN-229)-OT column, ammonium acetate 10 mM pH 7.4, 0.05 mL/min

Chain of MRP1 (P33527 whole entry): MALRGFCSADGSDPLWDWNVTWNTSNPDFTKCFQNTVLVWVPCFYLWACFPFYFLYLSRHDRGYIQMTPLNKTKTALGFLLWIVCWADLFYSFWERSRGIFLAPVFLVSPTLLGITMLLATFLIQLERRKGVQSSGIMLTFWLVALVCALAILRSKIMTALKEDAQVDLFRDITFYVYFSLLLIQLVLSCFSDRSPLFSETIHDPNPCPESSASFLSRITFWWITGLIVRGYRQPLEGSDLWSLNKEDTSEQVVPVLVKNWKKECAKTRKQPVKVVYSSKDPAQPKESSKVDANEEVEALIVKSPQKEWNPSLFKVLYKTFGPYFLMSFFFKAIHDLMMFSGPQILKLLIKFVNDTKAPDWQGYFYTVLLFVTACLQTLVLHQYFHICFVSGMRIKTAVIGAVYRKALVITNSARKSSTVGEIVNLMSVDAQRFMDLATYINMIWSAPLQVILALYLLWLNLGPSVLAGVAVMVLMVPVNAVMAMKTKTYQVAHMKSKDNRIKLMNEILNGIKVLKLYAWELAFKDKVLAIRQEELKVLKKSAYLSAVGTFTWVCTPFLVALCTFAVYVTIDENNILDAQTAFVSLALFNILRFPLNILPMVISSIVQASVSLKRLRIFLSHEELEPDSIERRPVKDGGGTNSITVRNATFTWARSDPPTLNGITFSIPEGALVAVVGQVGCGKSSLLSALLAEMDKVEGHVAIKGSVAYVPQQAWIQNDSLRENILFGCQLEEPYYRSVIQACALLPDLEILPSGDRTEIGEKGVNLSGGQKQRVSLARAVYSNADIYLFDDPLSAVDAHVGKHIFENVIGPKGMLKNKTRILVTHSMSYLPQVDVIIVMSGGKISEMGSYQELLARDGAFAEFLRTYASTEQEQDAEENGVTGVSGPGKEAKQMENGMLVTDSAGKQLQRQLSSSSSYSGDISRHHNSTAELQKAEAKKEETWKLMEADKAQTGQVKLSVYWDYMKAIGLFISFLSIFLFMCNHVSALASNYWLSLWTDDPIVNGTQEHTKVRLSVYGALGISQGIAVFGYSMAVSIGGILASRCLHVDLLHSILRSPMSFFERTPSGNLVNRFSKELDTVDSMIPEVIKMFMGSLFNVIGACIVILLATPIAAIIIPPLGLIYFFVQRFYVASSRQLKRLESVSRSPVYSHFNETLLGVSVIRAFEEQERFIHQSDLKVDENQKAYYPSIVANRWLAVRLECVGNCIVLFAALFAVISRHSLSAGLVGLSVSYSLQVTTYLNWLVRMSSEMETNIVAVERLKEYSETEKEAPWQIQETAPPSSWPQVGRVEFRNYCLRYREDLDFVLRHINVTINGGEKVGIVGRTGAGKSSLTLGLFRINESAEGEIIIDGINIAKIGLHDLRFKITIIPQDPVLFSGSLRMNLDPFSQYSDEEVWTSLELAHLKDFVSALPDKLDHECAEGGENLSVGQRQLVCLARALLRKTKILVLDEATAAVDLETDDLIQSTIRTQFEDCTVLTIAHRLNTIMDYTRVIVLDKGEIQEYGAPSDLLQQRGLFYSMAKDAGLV

With `COc1cc([C@@H]2c3cc4c(cc3[C@@H](O[C@@H]3O[C@@H]5CO[C@@H](C)O[C@H]5[C@H](O)[C@H]3O)[C@H]3COC(=O)[C@H]23)OCO4)cc(OC)c1O` [etoposide] as the compound, how does the Kd [1] read?
Its Kd is 1260 ± 360 nM.

What about the Kd [2] of the same compound?
The Kd was 3.75 ± 0.97 µM.

What about the Kd [3] of the same compound?
Its Kd is 2250 ± 490 nM.

And the Kd [4]?
The Kd was 4.39 ± 1.93 µM.

What about the Kd [5] of the same compound?
Its Kd is 1410 ± 540 nM.

What about the “Reduction of breakthrough volume on addition of 2 μM verapamil” value ([5]; 0.75 μM etoposide, NMAC(LN-229)-IAM) of the same compound?
The value was ~ 10%.

What about the “Reduction of breakthrough volume on addition of 2 μM verapamil” value ([5]; 5 μM etoposide, NMAC(LN-229)-IAM) of the same compound?
Its value is ~ 15%.

And the “Breakthrough volume with 2 μM verapamil in mobile phase” value ([5]; 5 μM etoposide, NMAC(LN-229)-IAM, 2 μM verapamil)?
Its value is 21.01 min.

Which “Change in retention of etoposide” value [6] does the source give for `Cc1cn([C@H]2C[C@H](N=[N+]=[N-])[C@@H](CO)O2)c(=O)[nH]c1=O` [AZT, zidovudine] here?
Its value is −5%.

`COc1ccc(-c2coc3cc(O)cc(O)c3c2=O)cc1` [biochanin A] was tested. Which Kd [7] did it give?
The Kd was 1750 ± 360 nM.

And the Kd [8]?
Its Kd is 690 ± 170 nM.
